Source: ChEMBL document CHEMBL1121596, “Metabolic beta-hydroxylation and N-oxidation of N'-nitrosonornicotine” (J Med Chem, 1980)

species on record: Rattus norvegicus; experiment: Rate of formation of compound by F-344 rat liver microsomes; assay type: ADME

SMILES | Rate
O=C(CCCO)c1cccnc1 | 0.4 nmol/min/mg
O=NN1CCCC1c1ccc[n+]([O-])c1 (stereo not given) | 0.57 nmol/min/mg
O=NN1CCC(O)C1c1cccnc1 (stereo not given) | < 0.01 nmol/min/mg
O=NN1CC(O)CC1c1cccnc1 (stereo not given) | < 0.01 nmol/min/mg
OC1CCC(c2cccnc2)O1 (stereo not given) | 0.76 nmol/min/mg
